Data published in ChEMBL document CHEMBL1687777, “Membrane efflux and influx modulate both multidrug resistance and virulence of Klebsiella pneumoniae in a Caenorhabditis elegans model” (2010).
In brackets after ≈: the same amount, converted by molar mass.

tested on: Klebsiella pneumoniae; assay: Antibacterial activity against porin deficient OmpA positive Klebsiella pneumoniae KPBj1 revertant by disk agar diffusion method; format: functional; details: not given

Compared with `CO/N=C(\C(=O)N[C@@H]1C(=O)N2C(C(=O)O)=C(COC(C)=O)CS[C@H]12)c1csc(N)n1` [CEFOTAXIME], `CC(C)(O/N=C(\C(=O)N[C@@H]1C(=O)N2C(C(=O)[O-])=C(C[n+]3ccccc3)CS[C@H]12)c1csc(N)n1)C(=O)O` [CEFTAZIDIME] is 2-fold lower in MIC: 0.25 mg/L (≈ 0.549 µM) for the first, 0.125 mg/L (≈ 0.229 µM) for the second.

tested on: Klebsiella pneumoniae; assay: Antibacterial activity against porin deficient OmpA positive Klebsiella pneumoniae KPBj3 revertant by disk agar diffusion method; format: functional; details: not given

`CO/N=C(\C(=O)N[C@@H]1C(=O)N2C(C(=O)O)=C(COC(C)=O)CS[C@H]12)c1csc(N)n1` [CEFOTAXIME] and `CC(C)(O/N=C(\C(=O)N[C@@H]1C(=O)N2C(C(=O)[O-])=C(C[n+]3ccccc3)CS[C@H]12)c1csc(N)n1)C(=O)O` [CEFTAZIDIME] are the same in MIC: 0.25 mg/L (≈ 0.549 µM) for the first, 0.25 mg/L (≈ 0.457 µM) for the second.

tested on: Klebsiella pneumoniae; assay: Antibacterial activity against porin deficient OmpA positive Klebsiella pneumoniae KPBj1 expressing efflux system by disk agar diffusion method; format: functional; details: not given

Compared with `CO/N=C(\C(=O)N[C@@H]1C(=O)N2C(C(=O)O)=C(COC(C)=O)CS[C@H]12)c1csc(N)n1` [CEFOTAXIME], `CC(C)(O/N=C(\C(=O)N[C@@H]1C(=O)N2C(C(=O)[O-])=C(C[n+]3ccccc3)CS[C@H]12)c1csc(N)n1)C(=O)O` [CEFTAZIDIME] is 2-fold lower in MIC: 0.25 mg/L (≈ 0.549 µM) for the first, 0.125 mg/L (≈ 0.229 µM) for the second.

tested on: Klebsiella pneumoniae; assay: microbe, parasite or virus in culture; details: KPBj1
Description: Antibacterial activity against porin deficient OmpA positive extended-spectrum beta-lactamase producing Klebsiella pneumoniae KPBj1 expressing efflux system by disk agar diffusion method

First: CO/N=C(\C(=O)N[C@@H]1C(=O)N2C(C(=O)O)=C(COC(C)=O)CS[C@H]12)c1csc(N)n1 [CEFOTAXIME]
Second: CC(C)(O/N=C(\C(=O)N[C@@H]1C(=O)N2C(C(=O)[O-])=C(C[n+]3ccccc3)CS[C@H]12)c1csc(N)n1)C(=O)O [CEFTAZIDIME]
The MIC of the first is 8-fold higher: 256 mg/L (≈ 562 µM) for the first, 32 mg/L (≈ 58.5 µM) for the second.

tested on: Klebsiella pneumoniae; assay: Antibacterial activity against porin, OmpA positive extended-spectrum beta-lactamase producing Klebsiella pneumoniae KPBj1 revertant by disk agar diffusion method; format: functional; details: not given

Compared with `CO/N=C(\C(=O)N[C@@H]1C(=O)N2C(C(=O)O)=C(COC(C)=O)CS[C@H]12)c1csc(N)n1` [CEFOTAXIME], `CC(C)(O/N=C(\C(=O)N[C@@H]1C(=O)N2C(C(=O)[O-])=C(C[n+]3ccccc3)CS[C@H]12)c1csc(N)n1)C(=O)O` [CEFTAZIDIME] is 8-fold lower in MIC: 128 mg/L (≈ 281 µM) for the first, 16 mg/L (≈ 29.3 µM) for the second.

tested on: Klebsiella pneumoniae; assay: Antibacterial activity against porin, OmpA positive extended-spectrum beta-lactamase producing Klebsiella pneumoniae KPBj1 by disk agar diffusion method; format: functional; details: not given

First: CO/N=C(\C(=O)N[C@@H]1C(=O)N2C(C(=O)O)=C(COC(C)=O)CS[C@H]12)c1csc(N)n1 [CEFOTAXIME]
Second: CC(C)(O/N=C(\C(=O)N[C@@H]1C(=O)N2C(C(=O)[O-])=C(C[n+]3ccccc3)CS[C@H]12)c1csc(N)n1)C(=O)O [CEFTAZIDIME]
The MIC of the first is 4-fold higher: 128 mg/L (≈ 281 µM) for the first, 32 mg/L (≈ 58.5 µM) for the second.

tested on: Klebsiella pneumoniae; assay: Antibacterial activity against porin, OmpA positive Klebsiella pneumoniae KPBj3 revertant by disk agar diffusion method; format: functional; details: not given

Going from `CO/N=C(\C(=O)N[C@@H]1C(=O)N2C(C(=O)O)=C(COC(C)=O)CS[C@H]12)c1csc(N)n1` [CEFOTAXIME] to `CC(C)(O/N=C(\C(=O)N[C@@H]1C(=O)N2C(C(=O)[O-])=C(C[n+]3ccccc3)CS[C@H]12)c1csc(N)n1)C(=O)O` [CEFTAZIDIME], the MIC rises from 0.06 mg/L (≈ 0.132 µM) to 0.125 mg/L (≈ 0.229 µM) (2.1-fold).

tested on: Klebsiella pneumoniae; assay: Antibacterial activity against porin deficient OmpA positive extended-spectrum beta-lactamase producing Klebsiella pneumoniae KPBj1 revertant by disk agar diffusion method; format: functional; details: not given

Compared with `CO/N=C(\C(=O)N[C@@H]1C(=O)N2C(C(=O)O)=C(COC(C)=O)CS[C@H]12)c1csc(N)n1` [CEFOTAXIME], `CC(C)(O/N=C(\C(=O)N[C@@H]1C(=O)N2C(C(=O)[O-])=C(C[n+]3ccccc3)CS[C@H]12)c1csc(N)n1)C(=O)O` [CEFTAZIDIME] is 8-fold lower in MIC: 256 mg/L (≈ 562 µM) for the first, 32 mg/L (≈ 58.5 µM) for the second.

tested on: Klebsiella pneumoniae; assay: Antibacterial activity against porin, OmpA positive Klebsiella pneumoniae KPBj3 expressing efflux system by disk agar diffusion method; format: functional; details: not given

Compared with `CO/N=C(\C(=O)N[C@@H]1C(=O)N2C(C(=O)O)=C(COC(C)=O)CS[C@H]12)c1csc(N)n1` [CEFOTAXIME], `CC(C)(O/N=C(\C(=O)N[C@@H]1C(=O)N2C(C(=O)[O-])=C(C[n+]3ccccc3)CS[C@H]12)c1csc(N)n1)C(=O)O` [CEFTAZIDIME] is 4.2-fold higher in MIC: 0.06 mg/L (≈ 0.132 µM) for the first, 0.25 mg/L (≈ 0.457 µM) for the second.

tested on: Klebsiella pneumoniae; assay: Antibacterial activity against porin deficient OmpA positive Klebsiella pneumoniae KPBj5 expressing efflux system by disk agar diffusion method; format: functional; details: not given

`CO/N=C(\C(=O)N[C@@H]1C(=O)N2C(C(=O)O)=C(COC(C)=O)CS[C@H]12)c1csc(N)n1` [CEFOTAXIME] and `CC(C)(O/N=C(\C(=O)N[C@@H]1C(=O)N2C(C(=O)[O-])=C(C[n+]3ccccc3)CS[C@H]12)c1csc(N)n1)C(=O)O` [CEFTAZIDIME] are the same in MIC: 0.25 mg/L (≈ 0.549 µM) for the first, 0.25 mg/L (≈ 0.457 µM) for the second.

tested on: Klebsiella pneumoniae; assay: Antibacterial activity against porin, OmpA positive Klebsiella pneumoniae KPBj1 expressing efflux system by disk agar diffusion method; format: functional; details: not given

First: CO/N=C(\C(=O)N[C@@H]1C(=O)N2C(C(=O)O)=C(COC(C)=O)CS[C@H]12)c1csc(N)n1 [CEFOTAXIME]
Second: CC(C)(O/N=C(\C(=O)N[C@@H]1C(=O)N2C(C(=O)[O-])=C(C[n+]3ccccc3)CS[C@H]12)c1csc(N)n1)C(=O)O [CEFTAZIDIME]
The MIC of the first is 2-fold lower: 0.125 mg/L (≈ 0.274 µM) for the first, 0.25 mg/L (≈ 0.457 µM) for the second.

tested on: Klebsiella pneumoniae; assay: Antibacterial activity against porin, OmpA positive Klebsiella pneumoniae KPBj5 expressing efflux system by disk agar diffusion method; format: functional; details: not given

Going from `CO/N=C(\C(=O)N[C@@H]1C(=O)N2C(C(=O)O)=C(COC(C)=O)CS[C@H]12)c1csc(N)n1` [CEFOTAXIME] to `CC(C)(O/N=C(\C(=O)N[C@@H]1C(=O)N2C(C(=O)[O-])=C(C[n+]3ccccc3)CS[C@H]12)c1csc(N)n1)C(=O)O` [CEFTAZIDIME], the MIC rises from 0.125 mg/L (≈ 0.274 µM) to 0.25 mg/L (≈ 0.457 µM) (2-fold).

tested on: Klebsiella pneumoniae; assay: Antibacterial activity against porin, OmpA positive Klebsiella pneumoniae KPBj5 revertant by disk agar diffusion method; format: functional; details: not given

Going from `CO/N=C(\C(=O)N[C@@H]1C(=O)N2C(C(=O)O)=C(COC(C)=O)CS[C@H]12)c1csc(N)n1` [CEFOTAXIME] to `CC(C)(O/N=C(\C(=O)N[C@@H]1C(=O)N2C(C(=O)[O-])=C(C[n+]3ccccc3)CS[C@H]12)c1csc(N)n1)C(=O)O` [CEFTAZIDIME], the MIC rises from 0.06 mg/L (≈ 0.132 µM) to 0.125 mg/L (≈ 0.229 µM) (2.1-fold).

tested on: Klebsiella pneumoniae; assay: Antibacterial activity against porin deficient OmpA positive Klebsiella pneumoniae KPBj5 revertant by disk agar diffusion method; format: functional; details: not given

`CO/N=C(\C(=O)N[C@@H]1C(=O)N2C(C(=O)O)=C(COC(C)=O)CS[C@H]12)c1csc(N)n1` [CEFOTAXIME] and `CC(C)(O/N=C(\C(=O)N[C@@H]1C(=O)N2C(C(=O)[O-])=C(C[n+]3ccccc3)CS[C@H]12)c1csc(N)n1)C(=O)O` [CEFTAZIDIME] are the same in MIC: 0.125 mg/L (≈ 0.274 µM) for the first, 0.125 mg/L (≈ 0.229 µM) for the second.

tested on: Klebsiella pneumoniae; assay: Antibacterial activity against porin, OmpA positive Klebsiella pneumoniae KPBj1 revertant by disk agar diffusion method; format: functional; details: not given

Compared with `CO/N=C(\C(=O)N[C@@H]1C(=O)N2C(C(=O)O)=C(COC(C)=O)CS[C@H]12)c1csc(N)n1` [CEFOTAXIME], `CC(C)(O/N=C(\C(=O)N[C@@H]1C(=O)N2C(C(=O)[O-])=C(C[n+]3ccccc3)CS[C@H]12)c1csc(N)n1)C(=O)O` [CEFTAZIDIME] is 2.1-fold higher in MIC: 0.06 mg/L (≈ 0.132 µM) for the first, 0.125 mg/L (≈ 0.229 µM) for the second.

tested on: Klebsiella pneumoniae; assay: Antibacterial activity against porin deficient OmpA positive Klebsiella pneumoniae KPBj3 expressing efflux system by disk agar diffusion method; format: functional; details: not given

`CO/N=C(\C(=O)N[C@@H]1C(=O)N2C(C(=O)O)=C(COC(C)=O)CS[C@H]12)c1csc(N)n1` [CEFOTAXIME] and `CC(C)(O/N=C(\C(=O)N[C@@H]1C(=O)N2C(C(=O)[O-])=C(C[n+]3ccccc3)CS[C@H]12)c1csc(N)n1)C(=O)O` [CEFTAZIDIME] are the same in MIC: 0.25 mg/L (≈ 0.549 µM) for the first, 0.25 mg/L (≈ 0.457 µM) for the second.

tested on: Klebsiella pneumoniae; assay: Antibacterial activity against porin, OmpA positive Klebsiella pneumoniae ATCC 138821 by disk agar diffusion method; format: functional; details: not given

Going from `CO/N=C(\C(=O)N[C@@H]1C(=O)N2C(C(=O)O)=C(COC(C)=O)CS[C@H]12)c1csc(N)n1` [CEFOTAXIME] to `CC(C)(O/N=C(\C(=O)N[C@@H]1C(=O)N2C(C(=O)[O-])=C(C[n+]3ccccc3)CS[C@H]12)c1csc(N)n1)C(=O)O` [CEFTAZIDIME], the MIC rises from 0.06 mg/L (≈ 0.132 µM) to 0.125 mg/L (≈ 0.229 µM) (2.1-fold).
